Assay [1] concerns cyclic RGD peptide. Briefly: STM break-junction measurement, Pd probe and substrate functionalized with cyclic RGD peptide. The assay is classed as binding. To be noted: for event frequency, of all retractions: 10 nM protein, Vt=0.2V. The protocol: A Pd wire probe, etched to a sharp point and insulated to within a few hundred nm of its apex was used in an Agilent PicoSPM together with a Pd-coated substrate as described elsewhere. […] Probes and substrates were functionalized with cyclic RGD peptide (inset FIG. 14B) as described in Methods. Measurements were carried out in 1 mM phosphate buffer (pH=7.4) with the potential of the substrate controlled at a voltage Vr with respect to an Ag/AgCl reference. […] Integrin itself is electrochemically-inert, but the Pd surface has a rich electrochemistry. Cyclic voltammetry of a Pd surface functionalized with cyclic RGD peptide is shown in FIG. 14B, where a prominent cathodic peak (“HA”) is associated with hydrogen adsorption. […] In order to avoid both this cathodic peak and the onset of Pd oxidation at positive potentials, both electrodes were kept at potentials between 0 and 0.5V vs Ag/AgCl. The STM gap was set to an initial current of 4 pA ([…] conductance at Vt=0.2V, corresponding to a distance, Z0, of about 2 nm) and the probe was then slowly (0.17 nm/s) retracted. The tunnel current decayed rapidly (˜0.2 nm decay length—inset in FIG. 14E) in buffer alone. […] Many current points for αvβ3, exceed 0.1 nA (i.e., conductances >0.5 nS) at distances Z0+ΔZ>3 nm (FIG. 15A). Clearly these currents cannot arise from a tunneling process with β˜0.87 Å^−1 for which G0·e^−βx yields values smaller than 10^−16 S.
Table 1 summarizes the frequency with which these large current pulses are observed in STM measurements, showing also the effect of increasing bias. Large current events are barely seen below 0.1V, their frequency rising with increasing bias above this threshold. The experiments were repeated without a reference electrode, finding essentially identical results over the range of 0.1 to 0.5V (Table 1) presumably because the large-area substrate used in the STM experiments serves to stabilize surface potential somewhat.
The fraction in parenthesis corresponds to events that overflowed the current limit of the amplifier (11 nA). 0.5V bias approaches the potential for surface oxide formation of the Pd, but no significant oxidation currents were observed.
Functionalizing STM probes and substrates: The STM probes were etched from a 0.25 mm Pd wire (California Fine Wires) by an AC electrochemical etching method, and then insulated with high-density polyethylene, leaving an open apex of a few tens of nanometers in diameter. Before use, the probes were tested in 1 mM phosphate buffer (pH=7.4) at 0.5 V bias to ensure that the leakage current was <1 pA. For functionalization, the probe was gently cleaned using ethanol and water, respectively, and then dried with nitrogen flow. The probe was immersed in a 0.5 mg/mL peptide solution for ˜20 h. After that, the probe was taken out, rinsed with water, dried with nitrogen gas, and used immediately. Palladium substrates were prepared by depositing a 100 nm palladium film onto a 10 nm titanium adhesion layer coated onto a 750 μm thick silicon wafer using an electron-beam evaporator (Lesker PVD 75). The substrate was annealed with a hydrogen flame immediately before being functionalized by the same method as that for probe. Fourier transform infrared (FTIR) spectroscopy was used to characterize the functionalization. Pd substrates were also treated by UV- Ozone cleaner and H2 gas reduction (to remove PdO).
STM Measurements: Break junction measurements were carried out with a PicoSPM scanning probe microscope (Agilent Technologies). The Teflon liquid cells were cleaned in Piranha solution and then sonicated in Milli-Q water three times (Note that: the Piranha is highly corrosive and must be handled with extreme care). The current set point was 4 pA. Different sample bias was applied to the substrate as required. For better surface charge control, an Ag/AgCl with a salt bridge (10 mM KCl) was connected to the substrate. […]

For assay [2], the system named is cyclic RGD peptide. Briefly: Tunnel junction device functionalized with cyclic RGD peptide, gap 3.5 to 4 nm, current vs time. To be noted: for signal on flowing solution over junction: X=0.1 μm junction, 10 pM α4β1 for several minutes, then 10 fM αVβ3. The assay is classed as binding. The text has this:
FIG. 7 illustrates a cross-sectional view of a tunnel junction edge (i.e., the edge of an opening) of the device according to some embodiments of the present disclosure which includes a first metal electrode 71 (e.g., palladium, gold and/or platinum) onto which is deposited a layer of an insulating dielectric such as alumina 72 (for example). A second metal electrode 73 is then deposited, typically using one of the metals used for the first electrode. In some embodiments (not shown), the first electrode 71 and the second electrode 73 A cut is then made in the structure to expose the edge of these layers (fabrication of this type of device is described in detail in co-pending, published WO2015/161119, and also in Pang, Ashcroft et al. 2014) to form the opening/nanopore 78, shown here as a plane adjacent to the electrodes 71, 73. Accordingly, the first electrode 71 and the second electrode 73 can have an opening formed therethrough such as, for example, a nanopore. Said another way, the first electrode 71 and the second electrode 73 can be said to be arranged within or adjacent to an opening, or have a nanopore formed therethrough.
Specifically, for example, the insulating layer 72 is deposited with a thickness d that is chosen to be greater than the longest linear dimension of the recognition molecules 74 (L1, referred to as its effective length). However, according to some embodiments, it is chosen to be less than the combined overall length of the largest dimension of a target molecule 75 (L2, also referred to as its effective length) bound to the recognition molecule 74 (L1+L2). In the case of the integrin-RGD pair (FIGS. 3 and 4) the RGD molecule is about 1 nm at its longest, while the integrin is 9 nm, for a total of about 10 nm. […] However, a large particle that fluctuates into a highly conductive state could be used to mediate current flow (Vattay, Salahub et al. 2015). In some embodiments, the gap need only be made substantially larger than twice the largest dimension of the recognition molecules (i.e., >2L1). Thus, for example, if a recognition molecule is 1 nm at its longest dimension, then the gap is configured to be greater than 2 nm, preferably by about 10%, to accommodate variations in the junction geometry (larger than 2.2 nm in this example). In some embodiments, a gap size can be from the noted minimum up to the size of one recognition molecule plus the size of the target protein. For example, if the largest dimension of the protein is 9 nm, then the gap in this case can be as big 9 nm plus the size of one of the recognition molecules (1 nm in this example), thus, a gap of 10 nm.
However, when the junctions are exposed to the target protein (αvβ3 integrin) signals appear immediately. […] A clear signal is immediately generated which includes two (2) features as marked: a background current (of about 0.5 nA in this case) and noise spikes of 0.5 to 1 nA superimposed on top.

Setting [3] is: Bias 0.1 V, Reference Ag/AgCl (0V).
Where [4] appears, read: Bias 0.2 V, Reference Ag/AgCl (0V).
Setting [5] is: Bias 0.5 V, Reference Ag/AgCl (0V).
[6] abbreviates: Bias 0.5 V, Reference None (substrate floating).
Where [7] appears, read: many current points, at distances Z0+ΔZ>3 nm.

Regarding “αvβ3: ~200 kD αVβ3 extracelluar domain of human integrin, target protein bound by cyclic RGD peptide”, the “event frequency, of all retractions” value with cyclic RGD peptide [1] is reported as 25%. The “fraction of events that overflowed the current limit of the amplifier (11 nA)” value in the assay on cyclic RGD peptide [1] (setting [3]) was found to be 0; in the assay with cyclic RGD peptide [1] (Bias 0.1 V, Reference None), 0; in the assay on cyclic RGD peptide [1] (setting [4]), 0.01; with cyclic RGD peptide [1] (Bias 0.2 V, Reference None) it was 0.03; with cyclic RGD peptide [1] (setting [5]), 0.2; with cyclic RGD peptide [1] (setting [6]), 0.09. Moreover, the “fraction of retractions that showed large current events” value with cyclic RGD peptide [1] (setting [3]) is 0.07; in the assay on cyclic RGD peptide [1] (Bias 0.1 V, Reference None) it was 0.06; with cyclic RGD peptide [1] (setting [4]) it was 0.32; in the assay on cyclic RGD peptide [1] (Bias 0.2 V, Reference None) it was 0.26; with cyclic RGD peptide [1] (setting [5]), 0.58; in the assay with cyclic RGD peptide [1] (setting [6]), 0.56. In the assay on cyclic RGD peptide [1] (setting [7]), the conductance is above 0.5 nS. For the same substance, the peak current entry in the assay with cyclic RGD peptide [1] (setting [7]) was “exceed 0.1 nA”. In addition, the background current result with cyclic RGD peptide [2] (1 pM in 1 mM phosphate buffer pH 7.0) was “about 0.5 nA”. Moreover, the “signal on flowing solution over junction” value with cyclic RGD peptide [2] is given as “a large signal appeared after a few minutes”. Further, in the assay with cyclic RGD peptide [2] (on increasing concentration to 10 pM), the “change of background current” value was “increases by nearly an order of magnitude”.

Regarding “α4β1: homologous, weakly-binding integrin protein used as a control”, the “event frequency, of all retractions” value in the assay on cyclic RGD peptide [1] is recorded as 12%. The “fraction of retractions that showed large current events” value stood at 0.01 in the assay with cyclic RGD peptide [1] (setting [3]); 0 with cyclic RGD peptide [1] (Bias 0.1 V, Reference None); 0.15 with cyclic RGD peptide [1] (setting [4]); 0.12 in the assay with cyclic RGD peptide [1] (Bias 0.2 V, Reference None); 0.3 in the assay on cyclic RGD peptide [1] (setting [5]); 0.24 with cyclic RGD peptide [1] (setting [6]). Further, the “fraction of events that overflowed the current limit of the amplifier (11 nA)” value in the assay with cyclic RGD peptide [1] (setting [4]) stood at 0; in the assay on cyclic RGD peptide [1] (Bias 0.2 V, Reference None), 0; in the assay on cyclic RGD peptide [1] (setting [5]), 0.01; in the assay on cyclic RGD peptide [1] (setting [6]) it was 0. The background current entry with cyclic RGD peptide [2] (10 pM and 100 pM solutions) is “no background current”. Further, the “signal on flowing solution over junction” value with cyclic RGD peptide [2] was “no signal being produced”.
